Measurements from patent US20240400555A1 (Initial Therapeutics, Inc., priority 2023, published 2024).
Like-named read-outs stand apart in the source and are kept apart here.

Tested on: MV-4-11 cells
Assay: Cell Viability Assay in MV-4-11 Cells
Format: cell-based
Conditions: Homo sapiens, MV4-11, 72 h
Outline: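 Luminescent ATP read-out (CellTiter-Glo) after 72 h compound treatment of MV-4-11 leukaemia cells (7,000 per well, IMDM plus 10% FBS). Values expressed relative to DMSO control and derived by four-parameter non-linear regression.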

[1] = MV-4-11 cells, 72 h, Cell-Titer Glo, read-out: IC50

| Compound | IC50 [1] | IC50 |
| --- | --- | --- |
| Cc1cccc2ccnc(N(C(=O)c3ccc(Nc4nccnn4)cc3F)[C@@H]3CCCNC3)c12 [Example 953, (R)-4-(1,2,4-triazin-3-ylamino)-2-fluoro-N-(8-methylisoquinolin-1-yl)-N-(piperidin-3-yl)benzamide] | 100 nM |  |
| Cn1cc(-c2ccc(C(=O)N(c3nccc4sc(C#CC(C)(C)O)cc34)[C@@H]3CCCNC3)c(F)c2)nn1 [Example 551, 2-fluoro-N-[2-(3-hydroxy-3-methyl-but-1-ynyl)thieno[3,2-c]pyridin-4-yl]-4-(1-methyltriazol-4-yl)-N-[(3R)-3-piperidyl]benzamide] | 520 nM |  |
| Cc1cccc2ccnc(N(C(=O)c3ccc(Nc4nccc(C5CCC(O)CC5)n4)cc3F)[C@@H]3CCCNC3)c12 (stereo partly drawn) [Example 679, (R)-2-fluoro-4-((4-(4-hydroxycyclohexyl)pyrimidin-2-yl)amino)-N-(8-methylisoquinolin-1-yl)-N-(piperidin-3-yl)benzamide] | 200 nM |  |
| O=C(c1ccc(-c2cnn3c2CCCC3)cc1F)N(c1nccc2sc(C#CCCCO)cc12)[C@@H]1CCCNC1 [Example 839, 2-fluoro-N-[2-(5-hydroxypent-1-ynyl)thieno[3,2-c]pyridin-4-yl]-N-[(3R)-3-piperidyl]-4-(4,5,6,7-tetrahydropyrazolo[1,5-a]pyridin-3-yl)benzamide] | 1500 nM |  |
| Cc1csc2ccnc(N(C(=O)c3ccc(-c4cn(C)nn4)cc3Cl)[C@@H]3CCCNC3)c12 [Example 758, (R)-2-chloro-4-(1-methyl-1H-1,2,3-triazol-4-yl)-N-(3-methylthieno[3,2-c]pyridin-4-yl)-N-(piperidin-3-yl)benzamide] | 170 nM |  |
| Cc1cccc2ccnc(N(C(=O)c3ccc(Nc4nccc(N5CCC(N(C)C)CC5)n4)cc3F)[C@@H]3CCCNC3)c12 [Example 714, (R)-4-((4-(4-(dimethylamino)piperidin-1-yl)pyrimidin-2-yl)amino)-2-fluoro-N-(8-methylisoquinolin-1-yl)-N-(piperidin-3-yl)benzamide] | 230 nM |  |
| CCn1cc(-c2ccc(C(=O)N(c3nccc4scc(C)c34)[C@@H]3CCCNC3)cc2)nn1 [Example 859, 4-(1-ethyltriazol-4-yl)-N-(3-methylthieno[3,2-c]pyridin-4-yl)-N-[(3R)-3-piperidyl] benzamide] | 100 nM |  |
| Cc1cccc2ccnc(N(C(=O)c3ccc(Nc4nccc(N5CCC[C@@H](O)C5)n4)cc3F)[C@@H]3CCCNC3)c12 [Example 623, 2-fluoro-4-((4-((R)-3-hydroxypiperidin-1-yl)pyrimidin-2-yl)amino)-N-(8-methylisoquinolin-1-yl)-N—((R)-piperidin-3-yl)benzamide] | 30 nM |  |
| C=C(C)c1csc2ccnc(N(C(=O)c3ccc(-c4cn(C)nn4)cc3F)[C@@H]3CCCNC3)c12 [Example 842, (R)-2-fluoro-4-(1-methyl-1H-1,2,3-triazol-4-yl)-N-(piperidin-3-yl)-N-(3-(prop-1-en-2-yl)thieno[3,2-c]pyridin-4-yl)benzamide] |  | 270 nM |
| Cc1cccc2ccnc(N(C(=O)c3ccc(Nc4nccc(N5CCOCC5c5cccnc5)n4)cc3F)[C@@H]3CCCNC3)c12 (stereo partly drawn) [Example 958, 2-fluoro-N-(8-methylisoquinolin-1-yl)-N—((R)-piperidin-3-yl)-4-((4-(3-(pyridin-3-yl)morpholino)pyrimidin-2-yl)amino)benzamide] | 47 nM |  |
| Cn1cc(-c2ccc(C(=O)N(c3nccc4sc(-c5ccc6c(c5)NC(=O)C6)cc34)[C@@H]3CCCNC3)c(F)c2)nn1 [Example 544] | 1800 nM |  |
| CC(=O)c1ccc(-c2cc3c(N(C(=O)c4ccc(-n5nnc6cccnc65)cc4F)[C@@H]4CCCNC4)nccc3s2)cc1 [Example 603, N-[2-(4-acetylphenyl)thieno[3,2-c]pyridin-4-yl]-2-fluoro-N-[(3R)-3-piperidyl]-4-(triazolo[4,5-b]pyridin-3-yl) benzamide] | 240 nM |  |
| Cn1cc(-c2ccc(C(=O)N(c3nccc4cc(-c5cccc(O)c5)ccc34)[C@@H]3CCCNC3)c(F)c2)nn1 [Example 495, (R)-2-fluoro-N-(6-(3-hydroxyphenyl)isoquinolin-1-yl)-4-(1-methyl-1H-1,2,3-triazol-4-yl)-N-(piperidin-3-yl)benzamide] | 660 nM |  |
| CCc1nnc(-c2ccc(C(=O)N(c3nccc4cccc(C)c34)[C@@H]3CCCNC3)cc2)s1 [Example 791, (R)-4-(5-ethyl-1,3,4-thiadiazol-2-yl)-N-(8-methylisoquinolin-1-yl)-N-(piperidin-3-yl) benzamide] | 140 nM |  |
| C=C(C)c1ccc2c(N(C(=O)c3ccc(-c4cn(C)nn4)cc3F)[C@@H]3CCCNC3)nccc2c1 [Example 692, (R)-2-fluoro-4-(1-methyl-1H-1,2,3-triazol-4-yl)-N-(piperidin-3-yl)-N-(6-(prop-1-en-2-yl)isoquinolin-1-yl)benzamide] | 350 nM |  |
| Cc1cccc2ccnc(N(C(=O)c3ccc(-c4cncnc4N)cc3F)[C@@H]3CCCNC3)c12 [Example 353, (R)-4-(4-aminopyrimidin-5-yl)-2-fluoro-N-(8-methylisoquinolin-1-yl)-N-(piperidin-3-yl)benzamide] | 540 nM |  |
| Cc1cccc2ccnc(N(C(=O)c3ccc(-c4cn(C)nn4)cn3)[C@@H]3CCCNC3)c12 [Example 809, (R)-5-(1-methyl-1H-1,2,3-triazol-4-yl)-N-(8-methylisoquinolin-1-yl)-N-(piperidin-3-yl)picolinamide] | 200 nM |  |

More lines, in order of falling IC50 [1], values ahead:

| IC50 [1] | Compound | IC50 |
| --- | --- | --- |
| 2800 nM | Cn1cc(-c2ccc(C(=O)N(c3nccc4sc(C#N)cc34)[C@@H]3CCCNC3)c(F)c2)nn1 [Example 477, N-(2-cyanothieno [3,2-c]pyridin-4-yl)-2-fluoro-4-(1-methyltriazol-4-yl)-N-[(3R)-3-piperidyl] benzamide] |  |
| 870 nM | CN(C)C(=O)/C=C/c1cc2c(N(C(=O)c3ccc(-n4nnc5cccnc54)cc3F)[C@@H]3CCCNC3)nccc2s1 [Example 526, N-[2-[(E)-3-(dimethylamino)-3-oxo-prop-1-enyl]thieno[3,2-c]pyridin-4-yl]-2-fluoro-N-[(3R)-3-piperidyl]-4-(triazolo[4,5-b]pyridin-3-yl)benzamide] |  |
| 790 nM | Cc1nnc(-c2ccc(C(=O)N(c3nccc4c(C)ccc(C)c34)[C@@H]3CCCNC3)nc2)s1 [Example 877, N-(5,8-dimethyl-1-isoquinolyl)-5-(5-methyl-1,3,4-thiadiazol-2-yl)-N-[(3R)-3-piperidyl]pyridine-2-carboxamide] |  |
| 680 nM | O=C(c1ccc(-c2cccnn2)cn1)N(c1nccc2cc(Cl)ccc12)[C@@H]1CCCNC1 [Example 806, N-(6-chloro-1-isoquinolyl)-N-[(3R)-3-piperidyl]-5-pyridazin-3-yl-pyridine-2-carboxamide] |  |
| 620 nM | COc1ccc2c(N(C(=O)c3ccc(-c4nnc(C)s4)cc3F)[C@@H]3CCCNC3)nccc2c1 [Example 762, (R)-2-fluoro-N-(6-methoxyisoquinolin-1-yl)-4-(5-methyl-1,3,4-thiadiazol-2-yl)-N-(piperidin-3-yl)benzamide] |  |
| 360 nM | O=C(c1ccc(-n2nnc3cccnc32)cc1F)N(c1nccc2sc(-c3cccnc3)cc12)[C@@H]1CCCNC1 [Example 364, 2-fluoro-N-[(3R)-3-piperidyl]-N-[2-(3-pyridyl)thieno[3,2-c]pyridin-4-yl]-4-(triazolo[4,5-b]pyridin-3-yl)benzamide] |  |
| 240 nM | COc1ccc2c(N(C(=O)c3ccc(-c4cn(C)nn4)cc3F)[C@@H]3CCCNC3)nccc2c1 [Example 471, (R)-2-fluoro-N-(6-methoxyisoquinolin-1-yl)-4-(1-methyl-1H-1,2,3-triazol-4-yl)-N-(piperidin-3-yl)benzamide] |  |
| 200 nM | NC(=O)c1ccc2c(N(C(=O)c3ccc(-n4nnc5cccnc54)cc3F)[C@@H]3CCCNC3)nccc2c1 [Example 453, (R)-1-(4-(3H-[1,2,3]triazolo[4,5-b]pyridin-3-yl)-2-fluoro-N-(piperidin-3-yl)benzamido)isoquinoline-6-carboxamide] |  |
| 200 nM | Cc1cccc2ccnc(N(C(=O)c3ccc(Nc4nccc(NCc5cccnc5)n4)cc3F)[C@@H]3CCCNC3)c12 [Example 696, (R)-2-fluoro-N-(8-methylisoquinolin-1-yl)-N-(piperidin-3-yl)-4-((4-((pyridin-3-ylmethyl)amino)pyrimidin-2-yl)amino)benzamide] |  |
| 190 nM | C#Cc1csc2c(N(C(=O)c3ccc(-c4cn(C)nn4)cc3F)[C@@H]3CCCNC3)nccc12 [Example 676, N-(3-ethynylthieno[2,3-c]704yridine-7-yl)-2-fluoro-4-(1-methyltriazol-4-yl)-N-[(3R)-3-piperidyl]benzamide] |  |
| 140 nM | Cn1cc(-c2ccc(C(=O)N(c3nccc4cc(-c5ccc(CN)cc5)ccc34)[C@@H]3CCCNC3)c(F)c2)nn1 [Example 834, (R)—N-(6-(4-(aminomethyl)phenyl)isoquinolin-1-yl)-2-fluoro-4-(1-methyl-1H-1,2,3-triazol-4-yl)-N-(piperidin-3-yl)benzamide] |  |
| 34 nM | Cc1cccc2ccnc(N(C(=O)c3ccc(Nc4ncnc(N5CCOCC5)n4)cc3F)[C@@H]3CCCNC3)c12 [Example 970, 2-fluoro-N-(8-methylisoquinolin-1-yl)-4-{[4-(morpholin-4-yl)-1,3,5-triazin-2-yl]amino}-N-[(3R)-piperidin-3-yl]benzamide] |  |
| 34 nM | Cc1cccc2ccnc(N(C(=O)c3ccc(Nc4nccc(-c5ccccc5)n4)cc3F)[C@@H]3CCCNC3)c12 [Example 559, (R)-2-fluoro-N-(8-methylisoquinolin-1-yl)-4-((4-phenylpyrimidin-2-yl)amino)-N-(piperidin-3-yl)benzamide] |  |
| 23 nM | Cc1cccc2ccnc(N(C(=O)c3ccc(Nc4nccc(N(C)C5CCOCC5)n4)cc3F)[C@@H]3CCCNC3)c12 [Example 957, (R)-2-fluoro-4-(4-(methyl(tetrahydro-2H-pyran-4-yl)amino)pyrimidin-2-ylamino)-N-(8-methylisoquinolin-1-yl)-N-(piperidin-3-yl)benzamide] |  |
| 17 nM | Cc1cc(Cl)cc2ccnc(N(C(=O)c3ccc(-n4nnc5cccnc54)cc3F)[C@@H]3CCCNC3)c12 [Example 615, N-(6-chloro-8-methyl-1-isoquinolyl)-2-fluoro-N-[(3R)-3-piperidyl]-4-(triazolo[4,5-b]pyridin-3-yl)benzamide] |  |
